Reference: ChEMBL document CHEMBL1944520, “Discovery of 3-aryloxy-lactam analogs as potent androgen receptor full antagonists for treating castration resistant prostate cancer” (Bioorg Med Chem Lett, 2012)
Converted amounts (≈) assume the structure as drawn.

Experiments:
[1] = Oral bioavailability in rat; type: ADME, organism-based; conditions: in vivo
[2] = tested on: Liver microsomes; assay: Unbound intrinsic clearance in human liver microsomes; type: ADME, Microsome
[3] = Solubility of the compound at pH 7.4; type: physicochemical; conditions: buffer
[4] = Fraction unbound in human; type: ADME, organism-based; conditions: in vivo
[5] = molecular target: T1, Androgen receptor (Homo sapiens) (UniProt P10275); assay: Agonist activity at androgen receptor expressed in human LNAR cells as induction of luciferase activity by spectrophotometry relative to untreated control; type: functional, cell-based
T1 sequence (whole entry): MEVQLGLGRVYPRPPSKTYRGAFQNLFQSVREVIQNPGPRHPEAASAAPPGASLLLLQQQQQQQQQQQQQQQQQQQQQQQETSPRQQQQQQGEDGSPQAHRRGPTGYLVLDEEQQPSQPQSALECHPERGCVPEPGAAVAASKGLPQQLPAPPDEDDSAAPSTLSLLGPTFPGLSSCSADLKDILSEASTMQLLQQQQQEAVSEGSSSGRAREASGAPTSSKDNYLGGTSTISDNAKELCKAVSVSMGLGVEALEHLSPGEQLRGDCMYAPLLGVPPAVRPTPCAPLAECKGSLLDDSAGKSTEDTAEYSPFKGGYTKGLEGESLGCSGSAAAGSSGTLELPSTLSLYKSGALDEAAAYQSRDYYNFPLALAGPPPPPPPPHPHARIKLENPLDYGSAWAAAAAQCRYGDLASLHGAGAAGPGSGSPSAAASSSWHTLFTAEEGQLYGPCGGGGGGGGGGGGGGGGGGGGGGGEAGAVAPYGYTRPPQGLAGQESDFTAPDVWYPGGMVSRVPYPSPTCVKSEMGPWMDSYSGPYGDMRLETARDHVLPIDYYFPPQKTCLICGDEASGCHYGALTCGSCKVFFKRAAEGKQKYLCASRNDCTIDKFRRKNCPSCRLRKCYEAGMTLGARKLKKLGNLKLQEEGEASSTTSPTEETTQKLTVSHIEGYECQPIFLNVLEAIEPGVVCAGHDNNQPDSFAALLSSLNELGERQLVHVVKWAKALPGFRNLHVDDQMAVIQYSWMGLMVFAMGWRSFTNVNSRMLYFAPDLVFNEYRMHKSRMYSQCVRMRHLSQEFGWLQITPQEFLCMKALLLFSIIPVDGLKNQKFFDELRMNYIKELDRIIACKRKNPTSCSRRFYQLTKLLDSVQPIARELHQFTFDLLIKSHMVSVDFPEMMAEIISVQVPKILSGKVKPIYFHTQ

[6] = molecular target: T2, Androgen receptor (Homo sapiens, UniProt P10275); assay: Antagonist activity at androgen receptor expressed in human LNAR cells assessed as inhibition of R1881-induced luciferase activity by spectrophotometry; type: functional, cell-based
T2 sequence (P10275 whole entry): T1 sequence (whole entry)

[7] = tested on: Rattus norvegicus; assay: Unbound plasma clearance in iv dosed rat; type: ADME, organism-based; conditions: in vivo
[8] = molecular target: T1, Androgen receptor (Homo sapiens); assay: Antagonist activity at androgen receptor expressed in human LNAR cells assessed as inhibition of R1881-induced luciferase activity at 1 uM by spectrophotometry; type: functional, cell-based
[9] = molecular target: T1, Androgen receptor (Homo sapiens); assay: Antagonist activity at androgen receptor expressed in human LNAR cells assessed as inhibition of R1881-induced luciferase activity at 0.1 uM by spectrophotometry; type: functional, cell-based

Row | SMILES | fold change (FC) [5] | IC50 [6] | inhibition [8] | other results
1 | CC(c1nnc(-c2cccc(F)c2)o1)N1CC(C)(C)C(Oc2ccc(C#N)c(C(F)(F)F)c2)C1=O (racemic) | 1.43 | 77 nM | – | bioavailability [1]: 10%; CL free [2]: 115 µL/min/mg; solubility [3]: 3.8 µg/mL (≈ 7.78 µM); fraction unbound [4]: 0.00825; CL free [7]: 1585 mL/min/kg
2 | CC1(C)CN(CCC#N)C(=O)[C@@H]1Oc1ccc(C#N)cc1 | 0.95 | – | 10% | –
3 | Cc1nnc(CN2CC(C)(C)[C@@H](Oc3ccc(C#N)c(C(F)(F)F)c3)C2=O)o1 | 0.97 | 633 nM | – | solubility [3]: 217 µg/mL (≈ 550 µM)
4 | CC1(C)CN(Cc2nnc(-c3ccccc3)o2)C(=O)[C@@H]1Oc1ccc(C#N)c(C(F)(F)F)c1 | 0.95 | 71 nM | – | bioavailability [1]: 10%; CL free [2]: 19.3 µL/min/mg; solubility [3]: 5.9 µg/mL (≈ 12.9 µM); fraction unbound [4]: 0.0127; CL free [7]: 921 mL/min/kg
5 | CC(CO)N1CC(C)(C)[C@@H](Oc2ccc(C#N)c(C(F)(F)F)c2)C1=O (stereo in doubt; 14) [listing 1 of 2 here] | 1.06 | – | – | –
6 | CC(CO)CN1CC(C)(C)[C@@H](Oc2ccc(C#N)c(C(F)(F)F)c2)C1=O (stereo in doubt; 23) [listing 1 of 2 here] | 0.95 | – | – | –
7 | CC1(C)CN(CCCO)C(=O)[C@@H]1Oc1ccc(C#N)c(C(F)(F)F)c1 | 1.11 | – | 87% | –
8 | CCCN1CC(C)(C)[C@@H](Oc2ccc(C#N)c(C(F)(F)F)c2)C1=O | 1.45 | – | 88% | –
9 | C[C@@H](c1nnc(-c2ccccc2)o1)N1CC(C)(C)[C@@H](Oc2ccc(C#N)c(C(F)(F)F)c2)C1=O | 3.09 | – | – | bioavailability [1]: 25%; CL free [2]: 43.87 µL/min/mg; solubility [3]: 3.7 µg/mL (≈ 7.86 µM); fraction unbound [4]: 0.0181; inhibition [9]: 62%; CL free [7]: 4294 mL/min/kg
10 | CC1(C)CN(C(C)(C)CO)C(=O)[C@@H]1Oc1ccc(C#N)c(C(F)(F)F)c1 | 0.91 | 761 nM | – | –
11 | CC(O)CN1CC(C)(C)[C@@H](Oc2ccc(C#N)c(C(F)(F)F)c2)C1=O (stereo in doubt; 18) [listing 1 of 2 here] | – | 216 nM | – | –
12 | CCCCN1CC(C)(C)[C@@H](Oc2ccc(C#N)c(C(F)(F)F)c2)C1=O | 2.12 | – | 85% | –
13 | CC(CO)N1CC(C)(C)[C@@H](Oc2ccc(C#N)c(C(F)(F)F)c2)C1=O (stereo in doubt; 14) [listing 2 of 2 here] | – | 371 nM | – | –
14 | CC1(C)CN(CC#N)C(=O)[C@@H]1Oc1ccc(C#N)c(C(F)(F)F)c1 | 2.75 | – | 89% | –
15 | CC(O)(CO)CN1CC(C)(C)[C@@H](Oc2ccc(C#N)c(C(F)(F)F)c2)C1=O (stereo in doubt; 24) | 1.01 | – | 17% | –
16 | CC(O)CN1CC(C)(C)[C@@H](Oc2ccc(C#N)c(C(F)(F)F)c2)C1=O (single isomer, unassigned) [listing 1 of 2 here] | 0.97 | – | – | –
17 | CC(CO)CN1CC(C)(C)[C@@H](Oc2ccc(C#N)c(C(F)(F)F)c2)C1=O (stereo in doubt; 23) [listing 2 of 2 here] | – | 371 nM | – | –

Row | SMILES | fold change (FC) [5] | IC50 [6] | inhibition [8] | other results
18 | CC1(C)CN(CCC#N)C(=O)[C@@H]1Oc1cnc(C#N)c(C(F)(F)F)c1 | 0.89 | – | 52% | –
19 | CC(=O)CN1CC(C)(C)[C@@H](Oc2ccc(C#N)c(C(F)(F)F)c2)C1=O | 0.91 | 266 nM | – | –
20 | CC(CO)N1CC(C)(C)[C@@H](Oc2ccc(C#N)c(C(F)(F)F)c2)C1=O (stereo in doubt; 15) [listing 1 of 2 here] | 1.02 | – | – | –
21 | CC(CO)CN1CC(C)(C)[C@@H](Oc2ccc(C#N)c(C(F)(F)F)c2)C1=O (stereo in doubt; 22) | 1.01 | – | 96% | –
22 | CC(CO)N1CC(C)(C)[C@@H](Oc2ccc(C#N)c(C(F)(F)F)c2)C1=O (stereo in doubt; 15) [listing 2 of 2 here] | – | 337 nM | – | –
23 | CC(O)(CO)CN1CC(C)(C)[C@@H](Oc2ccc(C#N)c(C(F)(F)F)c2)C1=O (stereo in doubt; 25) | 0.92 | – | 27% | –
24 | CNC(=O)CN1CC(C)(C)C(Oc2ccc(C#N)c(C(F)(F)F)c2)C1=O (racemic) | 0.85 | – | 23% | –
25 | CC(O)CN1CC(C)(C)[C@@H](Oc2ccc(C#N)c(C(F)(F)F)c2)C1=O (single isomer, unassigned) [listing 2 of 2 here] | – | 977 nM | – | –
26 | CC(O)CN1CC(C)(C)[C@@H](Oc2ccc(C#N)c(C(F)(F)F)c2)C1=O (stereo in doubt; 18) [listing 2 of 2 here] | 0.99 | – | – | –
27 | CC(C)(O)CN1CC(C)(C)[C@@H](Oc2ccc(C#N)c(C(F)(F)F)c2)C1=O | 0.9 | – | 29% | –
28 | CC1(C)CN(CCC#N)C(=O)[C@@H]1Oc1ccc(C#N)c(C(F)(F)F)c1 | 0.89 | 131 nM | – | bioavailability [1]: 64%; CL free [2]: 19.1 µL/min/mg; solubility [3]: 57 µg/mL (≈ 162 µM); fraction unbound [4]: 0.226; CL free [7]: 170 mL/min/kg
29 | CC1(C)CNC(=O)[C@@H]1Oc1ccc(C#N)c(C(F)(F)F)c1 | 1.31 | 105 nM | – | –
30 | CC1(C)CN(CCC#N)C(=O)[C@@H]1Oc1ccc(C#N)c(Cl)c1 | 0.99 | 68 nM | – | solubility [3]: 159 µg/mL (≈ 500 µM)
31 | CC1(C)CN(CCC#N)C(=O)[C@@H]1Oc1cc(C(F)(F)F)c(C#N)cn1 | 1.16 | – | 47% | –
32 | COC(=O)CN1CC(C)(C)C(Oc2ccc(C#N)c(C(F)(F)F)c2)C1=O (racemic) | 1.05 | 303 nM | – | –
33 | CC1(C)CN(CCO)C(=O)[C@@H]1Oc1ccc(C#N)c(C(F)(F)F)c1 | 1.03 | 263 nM | – | –
